PubChem BioAssay (NCI)
Where “and” joins values, the source holds several entries; their conditions need not be identical. Equal values may be shown once.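 Assay format: 96-well plates, 48-hour exposure. The concentration for 50% growth inhibition is given as GI50. The concentration for full growth arrest is given as TGI.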

How the values were obtained:
Test in all cases: NCI tumour cell line growth inhibition, 48 h
SF-268 CNS = tested on: SF-268 CNS
T-47D breast = tested on: T-47D breast
DU-145 prostate = tested on: DU-145 prostate
A549 NSCLC = tested on: A549 NSCLC
KM12 colon = tested on: KM12 colon
RXF 393 renal = tested on: RXF 393 renal
NCI/ADR-RES ovarian = tested on: NCI/ADR-RES ovarian
OVCAR-5 ovarian = tested on: OVCAR-5 ovarian
HCT-15 colon = tested on: HCT-15 colon
HT29 colon = tested on: HT29 colon

Compound | GI50 (SF-268 CNS) | TGI (SF-268 CNS) | GI50 (T-47D breast) | TGI (T-47D breast) | GI50 (DU-145 prostate) | TGI (DU-145 prostate) | GI50 (A549 NSCLC) | TGI (A549 NSCLC) | GI50 (KM12 colon) | TGI (KM12 colon) | GI50 (RXF 393 renal) | TGI (RXF 393 renal) | GI50 (NCI/ADR-RES ovarian) | TGI (NCI/ADR-RES ovarian) | GI50 (OVCAR-5 ovarian) | TGI (OVCAR-5 ovarian) | GI50 (HCT-15 colon) | TGI (HCT-15 colon) | GI50 (HT29 colon) | TGI (HT29 colon)
N#Cc1ccc(-c2c(-c3ncn[nH]3)sc(N3CCOCC3)c2C#N)c(F)c1 | 0.507 µM | 59.1 µM | 0.0391 µM | 0.522 µM | 1.66 µM | > 100 µM | 0.666 µM | 12.7 µM | 2.25 µM | 15.6 µM | 0.246 µM | 1.68 µM | 3.19 µM | > 100 µM | 0.455 µM | 10.5 µM | 0.596 µM | 18.5 µM | 0.363 µM | 18.3 µM
C/C=C/C/C=C/[C@H](C)C[C@H](O)[C@@H]1C[C@@H]2O[C@H]2/C=C/[C@@H]2OC(C)(C)O[C@H]2/C=C/C[C@H](C)CC(=O)O1 | 10.4 µM | > 100 µM | 2.18 µM | 8.53 µM | 12.3 µM | > 100 µM | 8.79 µM | > 100 µM | 7.85 µM | > 100 µM | 30.4 µM | > 100 µM | 3.28 µM | > 100 µM | 73.8 µM | > 100 µM | 4.84 µM | > 100 µM | 12 µM | > 100 µM
CC(C)c1ccc(C2NC(=S)NC3=C2c2ccccc2C3=O)cc1 (stereo not given) | – | > 52.4 µM | – | 35.5 µM | – | 31.7 µM | – | > 62.4 µM | – | > 58.7 µM | – | 23.9 µM | – | 33.3 µM | – | > 64.2 µM | – | > 51.9 µM | – | > 59 µM
CN1CCN(c2ccc(OC(F)(F)F)c(Nc3ncc4c(n3)-c3c(c(C(N)=O)nn3CCO)CC4)c2)CC1 | 0.0661 µM and 0.229 µM | 20.3 µM and > 10 µM | 0.944 µM and 0.538 µM | 40.8 µM and > 10 µM | 0.0349 µM and 0.0417 µM | > 100 µM | 0.0745 µM and 0.169 µM | 16 µM and > 10 µM | 0.0328 µM and 0.0354 µM | 35.4 µM and > 10 µM | 0.398 µM and 0.102 µM | 21 µM and > 10 µM | 1.19 µM and 1.04 µM | > 62.6 µM | 0.055 µM and 0.0577 µM | 51.8 µM and > 10 µM | 0.213 µM and 0.266 µM | > 100 µM | 0.0349 µM and 0.0348 µM | > 82.9 µM
Nc1ccccc1C#C/C=C\C#CC#C/C=C\C#Cc1ccccc1N | 5.93 µM | 26.2 µM | 6.47 µM | > 100 µM | 2.97 µM | 13.5 µM | 2.77 µM | 16.4 µM | 3.64 µM | > 100 µM | 2.18 µM | 6.22 µM | 2.85 µM | 16.3 µM | 14.9 µM | 42.1 µM | 3.74 µM | 24.2 µM | 8.36 µM | 32.7 µM
O=[N+]([O-])c1cccc(-c2nc(-c3ccc(Cl)cc3Cl)cn2-c2ccccc2)c1 | 1.14 µM | 5.5 µM | 0.922 µM | 2.9 µM | 0.574 µM | 1.19 µM | 0.787 µM | 1.92 µM | 0.573 µM | 1.22 µM | 0.823 µM | 2.08 µM | 1.56 µM | 15.6 µM | 3.54 µM | 24.6 µM | 1.13 µM | > 23.2 µM | 1.25 µM | 5.42 µM
CCOC(=O)C(Cc1c[nH]c2cc(N(CCO)CCO)ccc12)(NC(C)=O)C(=O)OCC | 619 µM | > 1000 µM | 472 µM | > 1000 µM | 391 µM | > 1000 µM | 604 µM | > 1000 µM | 143 µM | 463 µM | 128 µM | 719 µM | > 1000 µM | > 1000 µM | > 1000 µM | > 1000 µM | 758 µM | > 1000 µM | 305 µM | > 1000 µM
Cc1ccc(Nc2cc(Cl)c([N+](=O)[O-])cc2[N+](=O)[O-])cc1 | 3.63 µM | 10.3 µM | 3.28 µM | 9.51 µM | 2.95 µM | 7.55 µM | 7.76 µM | 22.1 µM | 3.24 µM | 8.8 µM | 2.57 µM | 6.66 µM | 3.83 µM | 24 µM | 6.62 µM | 20.9 µM | 4.12 µM | 16.5 µM | 3.04 µM | 8.07 µM
C=C1C(=O)OC2C1C(OC(=O)/C(C)=C/C)CC(O)(CCl)C1C(O)C=C(C)C21O (stereo not given) | – | > 69.5 µM | – | 42.2 µM | – | 30.7 µM | – | > 63.7 µM | – | 49.8 µM | – | 18.3 µM | – | 55.6 µM | – | 32.4 µM | – | 14.4 µM | – | 31.5 µM
Cc1ccc(C(=O)NCCCOc2ccc(N3C(N)=NC(N)=NC3(C)C)cc2Cl)cc1S(=O)(=O)F | 10.7 µM | > 100 µM | > 100 µM | > 100 µM | > 100 µM | > 100 µM | 39.5 µM | > 100 µM | 39 µM | > 100 µM | > 100 µM | > 100 µM | > 100 µM | > 100 µM | > 100 µM | > 100 µM | > 100 µM | > 100 µM | 6.61 µM | > 100 µM
OB(O)c1ccccc1C#Cc1ccccc1B(O)O | – | 46.9 µM | – | 83.6 µM | – | 82.4 µM | – | 96.1 µM | – | 49 µM | – | 36.9 µM | – | > 100 µM | – | 81.4 µM | – | > 100 µM | – | > 100 µM
CNCC/C=C1\c2cc3c(cc2-c2c1c1cc(OC)c(OC)cc1c(=O)n2C)OCO3 | 0.992 µM | 25.1 µM | 4.19 µM | 25.5 µM | 0.428 µM | 8.84 µM | 1.85 µM | 18.8 µM | < 0.0507 µM | 0.504 µM | 1.51 µM | 14.9 µM | 3.74 µM | > 45.2 µM | 4.51 µM | 27.4 µM | 0.585 µM | 13 µM | 0.21 µM | > 100 µM
Cc1ccc(S(=O)(=O)OCC#CCOS(=O)(=O)c2ccc(C)cc2)cc1 | 1.79 µM | 3.87 µM | 1.94 µM | 4.26 µM | 1.86 µM | 3.76 µM | 4.85 µM | 19.8 µM | 2.08 µM | 4.6 µM | 2.22 µM | 5.21 µM | 2.12 µM | 5.93 µM | 4.99 µM | 14.5 µM | 3.2 µM | 14.9 µM | 1.87 µM | 4.17 µM
